Measurements taken from patent US8017350B2, “Glimepiride- and insulin-induced glycosylphosphatidylinositol-specific phospholipase C regulation” (Sanofi-Aventis Deutschland GmbH, priority 2004, dated 2011).

Legend:
[1] = test system: GPI-anchored and acylated signaling proteins (pp59Lyn, Gce1, 5'-Nuc, aP) in DIGs of rat adipocytes; assay: Redistribution of pp59Lyn, Gce1, 5'-Nuc and aP from hcDIGs to lcDIGs in rat adipocytes; format: cell-based; conditions: GPI-2350 50 μM; Tab. 2
[2] = test system: lipolysis, rat adipocytes; assay: Isoproterenol-induced lipolysis in rat adipocytes; format: cell-based; conditions: GPI-2350 50 μM
Procedure: Electroporation was performed as described in “Müller, G. et al., (2000) Mol. Cell. Biol. 20: 4708-4723”. Lipolysis was determined as release of glycerol or fluorescent NBD-FA from prelabeled and isoproterenol-stimulated adipocytes as described in “Müller, G. et al., (2003) Biochimie 85: 1245-1256”. Gce1 was detected by photolabeling of solubilized plasma membranes or hc/lcDIGs (10-50 μg protein) with 8-N3—[^32P]cAMP and subsequent phosphorimaging as described in “Müller, G. et al., (1994) Biochemistry 33: 12149-12159”. 5′-Nuc, aP and AChE activities were measured according to “Eliakim, R. et al., (1990) Biochim. Biophys. Acta 1355: 293-302”. Protein was determined using the BCA protein determination kit from Pierce (Rockford, Ill.) and BSA as calibration standard. SDS-PAGE was performed using precast gels (Novex, San Diego, Calif.; 10% Bis-Tris resolving gel, morpholinopropanesulfonic acid-SDS running buffer). Lumiimages were evaluated on a LumiImager using LumiImager software (Roche Diagnostics). Phosphor- and fluorescence images were processed and quantified using the Storm 860 PhosphorImager system (Molecular Dynamics, Gelsenkirchen, Germany). Figures were constructed using the ADOBE PHOTOSHOP software (Adobe Systems, Mountain View, Calif.). […]

rat liver PI-PLC = assay: mammalian PI-PLC assay; format: biochemical; conditions: 50 μM
Procedure: Hormone-sensitive lipase (HSL) and lipoprotein lipase (LPL) were measured using a radiolabeled triolein droplet emulsion as described in “Vertesy et al., (2002) Journal Antibiotics 55:480-494”. Pancreatic lipase (PL) was determined by incubation of 0.25 mmol tributyrin in 2 ml of 5 mM Tris/HCl (pH 6.5), 6 mM sodium taurodeoxycholate, 150 mM NaCl, 1 mM CaCl2 with porcine PL and colipase in the same buffer using a recording pH stat (stirring at 1000 rpm at 25° C.) with the pH adjusted to 6.5. PC-PLC was assayed by incubation of 0.2 ml of 10 mM dipalmitoyllecithin, 0.1 ml of 10 mM SDC and 0.1 ml of 0.03 M CaCl2 with bacterial PC-PLC (in 50 mM Tris/HCl, pH 7.5, 0.1% BSA) for 10 min at 37° C. The reaction was terminated by addition of 0.1 ml of 50% TCA and subsequently of 2.5 ml of […]. After centrifugation (1500×g, 15 min), 0.2-ml portions of the upper methanol/water phase (˜1.33 ml) were removed, supplemented with 0.5 ml of 60% HClO4, then heated at 170° C. for 1 h and finally analyzed for inorganic phosphate. Mammalian PI-PLC was measured by incubation of 0.1 ml of 10 mM PI, 0.1 ml of 0.8% sodium deoxycholate, 0.1% BSA, 0.2 ml of 100 mM sodium borate (pH 7.5) and rat liver PI-PLC for 20 min at 37° C. The reaction was terminated and further processed as described for the PC-PLC. […] Radioactive phosphatidic acid was detected by phosphorimaging. […]

## CCCCCCCCCCCCP1(=O)O[C@@H]2[C@H](O)[C@@H](O)[C@H](O)[C@@H](O)[C@@H]2O1 (stereo partly drawn) [GPI-2350, myo-inositol-1,2-cyclo-dodecylphosphonic acid]
[1]
  effect on glimepiride-induced redistribution of 5'-Nuc, Gce1 and aP: completely eliminated
[2]
  glimepiride inhibition of lipolysis with GPI-2350: to lower than control values
Rat liver PI-PLC
  effect on PI-PLC: not significantly affected
